Results reported in ChEMBL document CHEMBL4706758, “Novel Substituted Pyridazines as Splicing Modulators for Modulating Splicing of mRNA and Uses Thereof for Treating Diseases” (ACS Med Chem Lett, 2021).

Key:
[1] = Modulation of HTT mRNA splicing in human GM04724 cells assessed as mHTT protein potency; type: cell-based
[2] = Modulation of HTT mRNA exon 49b splicing in human GM04724 cells; type: cell-based
[3] = Modulation of HTT mRNA exon 49-50 splicing in human GM04724 cells; type: cell-based
[4] = biological target: SMN2 pre-mRNA; experiment: Modulation of SMN2 mRNA FL splicing in spinal muscular atrophy patient fibroblasts; type: tissue-based, Homo sapiens; settings: fibroblast
[5] = biological target: SMN2 pre-mRNA; experiment: Modulation of SMN2 mRNA D7 splicing in spinal muscular atrophy patient fibroblasts; type: tissue-based, Homo sapiens; settings: fibroblast
[6] = biological target: SMN2 pre-mRNA; experiment: Modulation of SMN2 mRNA FL splicing in spinal muscular atrophy patient fibroblasts assessed as SMN2 protein potency; type: tissue-based, Homo sapiens; settings: fibroblast

| Structure (SMILES) | EC50 [1] | EC50 [2] | EC50 [3] | EC50 [4] | IC50 [5] | EC50 [6] |
| --- | --- | --- | --- | --- | --- | --- |
| COC[C@@]12CC[C@@H](C[C@H](N(C)c3ccc(-c4cc(F)c(-n5ccnc5)cc4O)nn3)C1)N2 | 0.01 nM | 0.01 nM | 0.01 nM | 0.01 nM | 0.01 nM | 0.01 nM |
| C[C@@]12CC[C@@H](C[C@H](Oc3ccc(-c4ccc(-n5ccnc5)cc4O)nn3)C1)N2 | 0.01 nM | 0.01 nM | 0.01 nM | 16 nM | 16 nM | 0.01 nM |
| CN(c1ccc(-c2ccc(-c3cnn(C)c3)cc2O)nn1)[C@H]1C[C@@H]2CC[C@@](C)(N2)[C@H]1F | 0.01 nM | 0.01 nM | 0.01 nM | 0.01 nM | 0.01 nM | 0.01 nM |
| C[C@]12CC[C@H](C[C@@H](Oc3ccc(-c4ccc(-c5cn[nH]c5)cc4O)nn3)C1)N2 | 0.01 nM | 0.01 nM | 0.01 nM | 16 nM | 0.01 nM | 0.01 nM |
| C[C@@]12CC[C@@H](C[C@H](Oc3ccc(-c4ccc(-c5cn[nH]c5)cc4O)nn3)C1)N2 | 0.01 nM | 0.01 nM | 0.01 nM | 0.01 nM | 0.01 nM | 0.01 nM |
| COC[C@]12CC[C@H](C[C@@H](N(C)c3ccc(-c4cc(F)c(-n5ccnc5)cc4O)nn3)C1)N2 | 0.01 nM | 0.01 nM | 0.01 nM | 0.01 nM | 0.01 nM | 0.01 nM |
